Columns and labels:
[1] = test system: Human immunodeficiency virus 1; assay: Resistance index, ratio of EC50 for HIV1 with protease 46I/50L/54V/82A mutation to EC50 for wild type HIV1 NL4-3 in HEK293 cells after 48 hrs by replication-deffective luciferase reporter gene-based phenotypic assay; type: functional
[2] = test system: Human immunodeficiency virus 1; assay: Resistance index, ratio of EC50 for HIV1 with protease 33I/46I/84V/90M mutation to EC50 for wild type HIV1 NL4-3 in HEK293 cells after 48 hrs by replication-deffective luciferase reporter gene-based phenotypic assay; type: functional
[3] = test system: Human immunodeficiency virus 1; assay: Resistance index, ratio of EC50 for HIV1 with protease 37T/41K/70E mutation to EC50 for wild type HIV1 NL4-3 in HEK293 cells after 48 hrs by replication-deffective luciferase reporter gene-based phenotypic assay; type: functional
[4] = test system: Human immunodeficiency virus 1; assay: Resistance index, ratio of EC50 for HIV1 with protease 46I/53L/82T/90M mutation to EC50 for wild type HIV1 NL4-3 in HEK293 cells after 48 hrs by replication-deffective luciferase reporter gene-based phenotypic assay; type: functional
[5] = test system: Human immunodeficiency virus 1; assay: Resistance index, ratio of EC50 for HIV1 with protease 54V/82A mutation to EC50 for wild type HIV1 NL4-3 in HEK293 cells after 48 hrs by replication-deffective luciferase reporter gene-based phenotypic assay; type: functional
[6] = test system: Human immunodeficiency virus 1; assay: Resistance index, ratio of EC50 for HIV1 with protease 46L mutation to EC50 for wild type HIV1 NL4-3 in HEK293 cells after 48 hrs by replication-deffective luciferase reporter gene-based phenotypic assay; type: functional
[7] = test system: Human immunodeficiency virus 1; assay: Resistance index, ratio of EC50 for HIV1 with protease 46I mutation to EC50 for wild type HIV1 NL4-3 in HEK293 cells after 48 hrs by replication-deffective luciferase reporter gene-based phenotypic assay; type: functional
[8] = test system: Human immunodeficiency virus 1; assay: Resistance index, ratio of EC50 for HIV1 with protease 46I/50V/54V mutation to EC50 for wild type HIV1 NL4-3 in HEK293 cells after 48 hrs by replication-deffective luciferase reporter gene-based phenotypic assay; type: functional
[9] = test system: Human immunodeficiency virus 1; assay: Resistance index, ratio of EC50 for HIV1 with protease 46I/50V/90M mutation to EC50 for wild type HIV1 NL4-3 in HEK293 cells after 48 hrs by replication-deffective luciferase reporter gene-based phenotypic assay; type: functional
[10] = test system: Human immunodeficiency virus 1; assay: Resistance index, ratio of EC50 for HIV1 with protease 46I/50V mutation to EC50 for wild type HIV1 NL4-3 in HEK293 cells after 48 hrs by replication-deffective luciferase reporter gene-based phenotypic assay; type: functional
Protease = Protease (Human immunodeficiency virus 1, UniProt Q9YQ12); assay: Inhibition of HIV1 protease
[11] = test system: Human immunodeficiency virus 1; assay: Antiviral activity against wild type HIV1 NL4-3 infected in MT4 cells after 6 days by MTT assay; type: functional, organism-based; conditions: Human immunodeficiency virus 1, NL4-3, MT4, 144 h
[12] = Cytotoxicity against human MT4 cells after 6 days by MTT assay; type: cell-based
[13] = Selectivity index, ratio of CC50 for human MT4 cells to EC50 for HIV1 NL4-3; type: toxicity, cell-based; conditions: read-out: Ratio CC50/EC50
[14] = test system: Human immunodeficiency virus 1; assay: Resistance index, ratio of EC50 for HIV1 with protease 46I/82T/84V/90M mutation to EC50 for wild type HIV1 NL4-3 in HEK293 cells after 48 hrs by replication-deffective luciferase reporter gene-based phenotypic assay; type: functional
[15] = test system: Human immunodeficiency virus 1; assay: Resistance index, ratio of EC50 for HIV1 with protease 48V/54V/82A/90M mutation to EC50 for wild type HIV1 NL4-3 in HEK293 cells after 48 hrs by replication-deffective luciferase reporter gene-based phenotypic assay; type: functional
[16] = test system: Human immunodeficiency virus 1; assay: Resistance index, ratio of EC50 for non-B type HIV1 with protease 32I/47A mutation to EC50 for wild type HIV1 NL4-3 in HEK293 cells after 48 hrs by replication-deffective luciferase reporter gene-based phenotypic assay; type: functional
[17] = test system: Human immunodeficiency virus 1; assay: Resistance index, ratio of EC50 for HIV1 with protease 46I/88S mutation to EC50 for wild type HIV1 NL4-3 in HEK293 cells after 48 hrs by replication-deffective luciferase reporter gene-based phenotypic assay; type: functional
[18] = test system: Human immunodeficiency virus 1; assay: Resistance index, ratio of EC50 for HIV1 with protease 33F/54L/88S/90M mutation to EC50 for wild type HIV1 NL4-3 in HEK293 cells after 48 hrs by replication-deffective luciferase reporter gene-based phenotypic assay; type: functional
[19] = test system: Human immunodeficiency virus 1; assay: Resistance index, ratio of EC50 for HIV1 with protease 33F/46I/84V/88D/90M mutation to EC50 for wild type HIV1 NL4-3 in HEK293 cells after 48 hrs by replication-deffective luciferase reporter gene-based phenotypic assay; type: functional
[20] = test system: Human immunodeficiency virus 1; assay: Resistance index, ratio of EC50 for HIV1 with protease 33F/54L/82A/90M mutation to EC50 for wild type HIV1 NL4-3 in HEK293 cells after 48 hrs by replication-deffective luciferase reporter gene-based phenotypic assay; type: functional
[21] = test system: Human immunodeficiency virus 1; assay: Resistance index, ratio of EC50 for HIV1 with protease 32I/46L/47V/84V mutation to EC50 for wild type HIV1 NL4-3 in HEK293 cells after 48 hrs by replication-deffective luciferase reporter gene-based phenotypic assay; type: functional
[22] = test system: Human immunodeficiency virus 1; assay: Resistance index, ratio of EC50 for HIV1 with protease 33F/54L/82A/84V mutation to EC50 for wild type HIV1 NL4-3 in HEK293 cells after 48 hrs by replication-deffective luciferase reporter gene-based phenotypic assay; type: functional
[23] = test system: Human immunodeficiency virus 1; assay: Resistance index, ratio of EC50 for HIV1 with protease 33F/46I/53L/82A/84V mutation to EC50 for wild type HIV1 NL4-3 in HEK293 cells after 48 hrs by replication-deffective luciferase reporter gene-based phenotypic assay; type: functional
[24] = test system: Human immunodeficiency virus 1; assay: Resistance index, ratio of EC50 for HIV1 with protease 33F/46L/53L/54V/82A mutation to EC50 for wild type HIV1 NL4-3 in HEK293 cells after 48 hrs by replication-deffective luciferase reporter gene-based phenotypic assay; type: functional
[25] = test system: Human immunodeficiency virus 1; assay: Resistance index, ratio of EC50 for HIV1 with protease 46L/54V/73C/84V/90M mutation to EC50 for wild type HIV1 NL4-3 in HEK293 cells after 48 hrs by replication-deffective luciferase reporter gene-based phenotypic assay; type: functional
[26] = test system: Human immunodeficiency virus 1; assay: Resistance index, ratio of EC50 for HIV1 with protease 33F/54V/82A/84V/90M mutation to EC50 for wild type HIV1 NL4-3 in HEK293 cells after 48 hrs by replication-deffective luciferase reporter gene-based phenotypic assay; type: functional
[27] = test system: Human immunodeficiency virus 1; assay: Resistance index, ratio of EC50 for HIV1 with protease 48V/82A/84V/90M mutation to EC50 for wild type HIV1 NL4-3 in HEK293 cells after 48 hrs by replication-deffective luciferase reporter gene-based phenotypic assay; type: functional
[28] = test system: Human immunodeficiency virus 1; assay: Resistance index, ratio of EC50 for HIV1 with protease 46L/50L/54V/82A mutation to EC50 for wild type HIV1 NL4-3 in HEK293 cells after 48 hrs by replication-deffective luciferase reporter gene-based phenotypic assay; type: functional

Sequence of Protease (Q9YQ12 whole entry): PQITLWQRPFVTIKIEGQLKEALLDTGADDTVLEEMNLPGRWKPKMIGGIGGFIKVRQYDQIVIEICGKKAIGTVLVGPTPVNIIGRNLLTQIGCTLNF

SMILES | Ratio EC50 [1] | Ratio EC50 [2] | Ratio EC50 [3] | Ratio EC50 [4] | Ratio EC50 [5] | Ratio EC50 [6] | Ratio EC50 [7] | Ratio EC50 [8] | Ratio EC50 [9] | Ratio EC50 [10] | Ki (Protease) [nM] | EC50 [11] [nM] | CC50 at 144 h [12] [nM] | selectivity ratio [13] | Ratio EC50 [14] | Ratio EC50 [15] | Ratio EC50 [16] | Ratio EC50 [17] | Ratio EC50 [18] | Ratio EC50 [19] | further results
Cc1c(O)cccc1C(=O)N[C@@H](CSc1ccccc1)[C@H](O)CN1C[C@H]2CCCC[C@H]2C[C@H]1C(=O)NC(C)(C)C | 14 | 28.5 | 1.9 | 32.9 | 12.1 | 1.7 | 1.6 | 12.7 | 19.4 | 1.3 | 0.306 | 29 | 8000 | 276 | 27.1 | 25.4 | 3.1 | 4.6 | 14.5 | 10 | Ratio EC50 [20]: 10.4; Ratio EC50 [21]: 7.8; Ratio EC50 [22]: 17.2; Ratio EC50 [23]: 11.1; Ratio EC50 [24]: 28.3; Ratio EC50 [25]: 82.6; Ratio EC50 [26]: 21.1; Ratio EC50 [27]: 27.3; Ratio EC50 [28]: 11.8
COC(=O)N[C@H](C(=O)N[C@@H](Cc1ccccc1)[C@@H](O)CN(Cc1ccc(-c2ccccn2)cc1)NC(=O)[C@@H](NC(=O)OC)C(C)(C)C)C(C)(C)C [ATAZANAVIR] | 67.5 | 7.5 | 1.5 | 33.7 | 3.9 | 0.9 | 0.7 | 2.4 | 1.2 | 0.4 | 0.039 | 4 | 71000 | 17800 | 32 | 28 | 1 | 3.1 | 18.9 | 14.7 | Ratio EC50 [20]: 7.5; Ratio EC50 [21]: 25; Ratio EC50 [22]: 44.5; Ratio EC50 [23]: 18.3; Ratio EC50 [24]: 22.7; Ratio EC50 [25]: 55.2; Ratio EC50 [26]: 24.7; Ratio EC50 [27]: 57.7; Ratio EC50 [28]: 68.9
COC(=O)N[C@H](C(=O)NCCCC[C@@H](CO)N(CC(C)C)S(=O)(=O)c1ccc(N)cc1)C(c1ccccc1)c1ccccc1 [PPL-100] | 4 | 3.4 | 1.9 | 8.3 | 1.8 | 1.1 | 1.5 | 0.5 | 1.4 | 0.8 | 0.036 | 16 | 37000 | 2310 | 4.8 | 1.1 | 1.4 | 0.4 | 1.7 | 5.6 | Ratio EC50 [20]: 30.3; Ratio EC50 [21]: 0.6; Ratio EC50 [22]: 31.2; Ratio EC50 [23]: 17.8; Ratio EC50 [24]: 5.5; Ratio EC50 [25]: 10.8; Ratio EC50 [26]: 9.6; Ratio EC50 [27]: 13.5; Ratio EC50 [28]: 3.2
